Measurements taken from US5081112A, “Method for treating hyperlipidemia” (Otsuka Pharmaceutical Factory Inc., priority 1986, dated 1992).
Where two headings read alike, the source gives them in different places.

Columns and labels:
[1] = test system: biosynthetic pathway of cholesterol; test: inhibitory effect in biosynthetic pathway of cholesterol; format: biochemical; conditions: 10^-4 M; rat liver microsomes and soluble fraction; 90 min, 100 µM
Description: Test for determining inhibitory effect in biosynthetic pathway of cholesterol
Each one of the test compounds was added to rat liver microsomes fraction (containing 0.2 mg of protein) and soluble fraction (containing 2 mg of protein), then the volume of the mixture was adjusted to 100 microliters by adding 0.1 M-potassium phosphate buffer solution (pH 7.4), then this mixture was incubated at 37° C. for 10 minutes.
After the incubation, the reaction was started by adding 200 microliters of a solution containing 1 mM ATP, 10 mM glucose-1-phosphate, 6 mM glutathione, 6 mM MgCl2, […], 0.25 mM […], 0.25 mM NADP, and 1 mM [1-^14 C] sodium acetate (3.0 mCi/mM).
The whole mixture was incubated at 37° C. for 90 minutes, then the reaction was terminated by adding […] of 15%-KOH (a 95% ethanol solution), next 2 mg of cholesterol was added thereto, saponified at 75° C. for 1 hour, and cholesterol was extracted with petroleum ether, the extract was concentrated to dryness. To the residue thus obtained was added with 2.5 ml of a mixture of acetone-diethyl ether (1:1) and 2.5 ml of 1%-digitonin (a 50% ethanol solution), then this solution was allowed to stand for 1 hour in cooling condition by using ice-water to precipitate cholesterol. The precipitate was washed with acetone, a mixture of acetonediethyl ether (1:1) and diethyl ether in this order, then the radioactivity of the residue was measured by using a liquid scintillation counter.
(§1) Control test was also conducted by the procedures similar to those mentioned above in the test group, except that each one of the test compounds was not used.
Inhibitory effect in biosynthetic pathway of cholesterol performed by each one of the test compounds was calculated, in terms of inhibitory ratio (%), from the formula on the basis of the radioactivity of the control group as follows: [formula] (wherein
[c] is a radioactivity of the control group, and
[d] is a radio activity of the test group).

[2] = test system: acyl-CoA:cholesterol acyltransferase (ACAT); test: inhibitory effect in the enzymatic activities of acyl-CoA:cholesterol acyltransferase (ACAT); format: biochemical; conditions: rat liver microsomes, 2 min; for Inhibitory effect to ACAT (inhibitory ratio), Table 5: head prints 10^14 M; for Inhibitory effect to ACAT (inhibitory ratio): 10^-4 M, 100 µM
Description: Test for determining inhibitory effect in the enzymatic activities of acyl-CoA:cholesterol acyltranferase (ACAT)
50 Microliters of each one of the test compounds was added to rat liver microsomes fraction (containing 0.4 mg of protein) of which volume was adjusted to 150 microliters by adding 0.15 M-potassium phosphate buffer solution (pH 7.4), then the mixture was incubated at 37° C. for 10 minutes. After the incubation, the reaction was started by adding 50 microliters of 0.15 M-potassium phosphate buffer solution (pH 7.4) containing 18 nM [1-^14 C] oleoyl-CoA (10 mCi/mM) and 0.6 mg BSA (bovine serum albumin) at 37° C. for 2 minutes. The reaction was terminated by adding 1 ml of ethanol, then 4 ml of n-hexane was added and shaken, then the n-hexane layer (upper layer) was concentrated to the volume of 3 ml under nitrogen gas stream, thus obtained cholesteryl oleate was isolated by means of a silica gel thin chromatography [developing solvent=petroleum ether: diethyl ether (95:5)] and the radioactivity was measured by using a liquid scintillation counter.
as §1
Inhibitory effect in the enzymatic activities of acyl-CoA:cholesterol acyltransferase (ACAT) performed by each one of the test compounds was calculated, in terms of inhibitory ratio (%), from the formula on the basis of the radioactivity of the control group as follows: [formula] (wherein
[e] is a radioactivity of the control group, and
[f] is a radioactivity of the test group).

[3] = test system: Triton WR-1339-induced hyperlipidemia in rat; test: antilipotropic effect in Triton WR-1339-induced hyperlipidemia in rat; format: in vivo, Wistar-strain male rats; conditions: 50 mg/kg oral, vs control
Source text: Wistar-strain male rats of 5-9 week age were used as test animals. One test group consisting of six (6) rats.
[a] is a determined value obtained from the control group, and
[b] is a determined value obtained from the test group).

SMILES | Inhibitory ratio of cholesterol biosynthesis [1] [%] | other results
CCOP(=O)(Cc1cccc(C(=O)N(c2ccccc2)c2ccc(C(=O)OC)cc2)c1)OCC [compound 24] | 21.6 | 
CCOP(=O)(Cc1cccc(C(=O)Nc2ccccc2)c1)OCC [compound 64] |  | Inhibitory effect to ACAT (inhibitory ratio), Table 5 [2]: 37.6%
CCOP(=O)(Cc1ccc(C(=O)N(Cc2ccc(C)cc2)c2ccccc2)cc1)OCC [compound 37] | 82.8 | 
CCOP(=O)(Cc1ccc(C(=S)N(Cc2ccccc2)Cc2ccccc2)cc1)OCC [compound 69] | 85.3 | 
CCOP(=O)(Cc1ccc(C(=O)NCCc2ccc(OC)c(OC)c2)cc1)OCC [compound 30] | 28.9 | 
CCOP(=O)(Cc1ccc(C(=O)N(Cc2ccccc2)c2cc(OC)c(OC)c(OC)c2)cc1)OCC [compound 52] | 65.6 | Inhibitory effect to ACAT (inhibitory ratio) [2]: 60.5%
CCOP(=O)(Cc1ccc(C(=O)N(Cc2ccccc2)c2ccc(C)cc2)cc1)OCC [compound 46] | 59.1 | 
CCOP(=O)(Cc1ccc(C(=O)Nc2ccccc2O)cc1)OCC [compound 28] | 22.1 | 
CCOP(=O)(Cc1ccc(C(=O)N2CCN(C)CC2)cc1)OCC [compound 56] | 23.6 | 
CCOP(=O)(Cc1ccc(C(=O)N(c2ccccc2)C2CCCCC2)cc1)OCC [compound 35] | 39.2 | 
CCOP(=O)(Cc1ccc(C(=O)N(Cc2ccccc2)Cc2ccccc2)cc1)OCC [compound 54] | 69.7 | 
CCOP(=O)(Cc1ccc(C(=O)N(Cc2ccccc2)c2ccc(OC)cc2)cc1)OCC [compound 48] | 63.7 | 
CCOP(=O)(Cc1ccc(C(=O)N(Cc2ccccc2)c2ccccc2)cc1)OCC [compound 65] |  | Inhibitory effect to ACAT (inhibitory ratio) [2]: 87.7%
CCOP(=O)(Cc1ccc(C(=O)N(Cc2ccccc2F)c2ccccc2)cc1)OCC [compound 41] | 84.2 | Inhibitory effect to ACAT (inhibitory ratio) [2]: 84.0%
CCOP(=O)(Cc1ccc(C(=S)Nc2ccccc2)cc1)OCC [compound 70] |  | Inhibitory effect to ACAT (inhibitory ratio) [2]: 39.4%
O=C(Nc1c(Cl)cccc1Cl)c1ccc(CP(=O)(Oc2ccccc2)Oc2ccccc2)cc1 [compound 29] | 35.8 | Inhibitory effect to ACAT (inhibitory ratio), Table 5 [2]: 73.9%
CCOP(=O)(Cc1ccc(C(=O)N(Cc2ccccc2)c2cccc(C(F)(F)F)c2)cc1)OCC [compound 50] | 78.2 | Inhibitory effect to ACAT (inhibitory ratio) [2]: 84.8%
CCOP(=O)(Cc1ccc(C(=O)Nc2ccc(C)cc2)cc1)OCC [compound 22] | 32.2 | inhibition in vivo at 50 mg/kg ([3]; 24 hours after Triton WR-1339 (400 mg/kg, tail vein), read-out: lowering ratio of serum triglycerides, 24 hours after Triton WR-1339): 38.6%; inhibition in vivo at 50 mg/kg ([3]; 24 hours after Triton WR-1339 (400 mg/kg, tail vein), read-out: lowering ratio of total serum cholesterol, 24 hours after Triton WR-1339): 6.9%; inhibition in vivo at 50 mg/kg ([3]; 48 hours after Triton WR-1339 (400 mg/kg, tail vein), read-out: lowering ratio of serum triglycerides, 48 hours after Triton WR-1339): 28.1%; inhibition in vivo at 50 mg/kg ([3]; 48 hours after Triton WR-1339 (400 mg/kg, tail vein), read-out: lowering ratio of total serum cholesterol, 48 hours after Triton WR-1339): 29%
CCCCCCCCC(c1ccc(C(=O)N(CCCCCCCC)c2ccccc2)cc1)P(=O)(OCC)OCC (stereo not shown) [compound 34] | 85.2 | 
CCOP(=O)(OCC)C(Cc1ccccc1)c1ccc(C(=O)N(Cc2ccccc2)c2cccc(C(F)(F)F)c2)cc1 (stereo not shown) [compound 51] | 70.4 | 
CCOP(=O)(Cc1ccc(C(=O)N2CCN(c3ccccc3C)CC2)cc1)OCC [compound 57] | 41.9 | 
CCOP(=O)(Cc1ccc(C(=O)N(Cc2ccccc2)C(C)C)cc1)OCC [compound 44] | 46.2 | 
CCOP(=O)(Cc1ccc(C(=O)N(CCc2ccccc2)c2ccccc2)cc1)OCC [compound 42] | 86.7 | 
CCOP(=O)(Cc1ccc(C(=O)N(Cc2ccccc2)c2ccc(C#N)cc2)cc1)OCC [compound 49] | 75.2 | 

SMILES | Inhibitory ratio of cholesterol biosynthesis [1] [%] | other results
CCOP(=O)(Cc1ccc(C(=O)Nc2ccccc2C(=O)O)cc1)OCC [compound 66] |  | Inhibitory effect to ACAT (inhibitory ratio) [2]: 26.0%
CCOP(=O)(Cc1ccc(C(=O)N(Cc2ccccc2)c2ccccc2F)cc1)OCC [compound 47] | 67.2 | 
CCOP(=O)(Cc1ccc(C(=O)Nc2ccccc2Br)cc1)OCC [compound 55] | 57.1 | 
CCCCCCNC(=O)c1ccc(C(C)P(=O)(OC(C)C)OC(C)C)cc1 (stereo not shown) [compound 26] | 67.4 | Inhibitory effect to ACAT (inhibitory ratio), Table 5 [2]: 88.9%
CCOP(=O)(Cc1ccc(C(=O)N2CCN(c3ccc(OC)cc3)CC2)cc1)OCC [compound 59] | 55.1 | 
CCOP(=O)(Cc1ccc(C(=O)N(Cc2cccc(C(F)(F)F)c2)c2ccccc2)cc1)OCC [compound 40] | 91.6 | 
CCOP(=O)(OCC)C(C)c1ccc(C(=O)N(CCc2ccccc2)Cc2ccccc2)cc1 (stereo not shown) [compound 62] | 80.2 | 
CCOP(=O)(Cc1ccc(C(=S)N(C)c2ccccc2)cc1)OCC [compound 67] | 32.5 | 
CCOP(=O)(Cc1ccc(C(=O)N(C)Cc2ccccc2)cc1)OCC [compound 43] | 23.8 | 
CCOP(=O)(Cc1ccc(C(=O)N(c2ccccc2)c2ccccc2)cc1)OCC [compound 36] | 61.1 | Inhibitory effect to ACAT (inhibitory ratio), Table 5 [2]: 63.1%
CCOP(=O)(Cc1ccc(C(=O)N(Cc2ccc([N+](=O)[O-])cc2)c2ccccc2)cc1)OCC [compound 39] | 74.6 | 
CCOP(=O)(Cc1ccc(C(=O)N(Cc2ccc(OC)cc2)c2ccccc2)cc1)OCC [compound 38] | 85.2 | 
CCOP(=O)(Cc1ccc(C(=O)N2CCN(Cc3ccccc3)CC2)cc1)OCC [compound 61] | 58.3 | 
CCOP(=O)(Cc1ccc(C(=O)Nc2cccc(C(F)(F)F)c2)cc1)OCC [compound 27] | 36.2 | Inhibitory effect to ACAT (inhibitory ratio), Table 5 [2]: 39.5%
CCOP(=O)(Cc1ccc(C(=O)NCCC(c2ccccc2)c2ccccc2)cc1)OCC [compound 31] | 65.4 | Inhibitory effect to ACAT (inhibitory ratio), Table 5 [2]: 87.7%
CCOP(=O)(Cc1ccc(C(=S)N(C)Cc2ccccc2)cc1)OCC [compound 68] | 57.2 | 
CCOP(=O)(Cc1ccc(C(=O)N2CCN(c3ccc(Cl)cc3)CC2)cc1)OCC [compound 58] | 58.4 | Inhibitory effect to ACAT (inhibitory ratio) [2]: 56.6%
CCCCCCNC(=O)c1ccc(C(C)P(=O)(OCC)OCC)cc1 (stereo not shown) [compound 63] | 58.9 | Inhibitory effect to ACAT (inhibitory ratio) [2]: 88.9%
CCCCCCCCN(C(=O)c1ccc(CP(=O)(OCC)OCC)cc1)c1ccccc1 [compound 33] | 89.6 | 
CCOP(=O)(Cc1ccc(C(=O)N2CCN(c3cccc(C(F)(F)F)c3)CC2)cc1)OCC [compound 60] | 24.9 | 
CCOP(=O)(Cc1ccc(C(=O)N(Cc2ccccc2)c2ccc(OC)c(OC)c2)cc1)OCC [compound 53] | 59.0 | 
CCOP(=O)(Cc1ccccc1C(=O)N(Cc1ccc(C#N)cc1)c1ccc(OC)cc1)OCC [compound 25] | 20.1 | 
CCOP(=O)(Cc1ccc(C(=O)N(Cc2ccccc2)C2CCCCC2)cc1)OCC [compound 45] | 76.9 | 
